# Reference: the SangsterLogP compilation
row,logP,Compound
1,3.42,CC1(C)C=Cc2ccccc2O1
2,6.2,Cc1c2c(cc3c1OC(C)(C)CC3)C=CC(C)(C)O2
3,4.55,CC1(C)C=Cc2ccc(Cl)cc2O1
4,3.52,COc1cc2c(cc1OC)SC(C)(C)C=C2
5,4.32,COc1ccc2c(c1)SC(C)(C)C=C2
6,4.86,COCCOCCOCCOc1cc2c(c3c1OC(C)(C)CC3)OC(C)(C)CC2
7,5.8,CC1(C)C=Cc2c(c3c(c4c2OC(C)(C)CC4)OC(C)(C)CC3)O1
8,2.77,COc1cc2c(cc1OC)OC(C)(C)C=C2
9,8.17,CC1(C)C=Cc2cc(C(C)(C)C)c3c(c2O1)CCC(C)(C)O3
10,4.47,COc1c2c(cc3c1OC(C)(C)CC3)C=CC(C)(C)O2
11,6.33,CC1(C)C=Cc2cc(Br)c3c(c2O1)CCC(C)(C)O3
12,5.15,CCOc1cc2c(cc1Br)C=CC(C)(C)O2
13,6.89,CCc1c2c(cc3c1OC(C)(C)C=C3)C=CC(C)(C)O2
14,3.36,CCOc1cc2c(cc1OC)C=CC(C)(C)O2
15,4.03,Cc1ccc2c(c1)OC(C)(C)C=C2
16,6.14,CC1(C)C=Cc2cc(Cl)c3c(c2O1)CCC(C)(C)O3
17,4.01,CC1(C)C=Cc2c(ccc3c2CCC(C)(C)O3)O1
18,3.46,COc1ccc2c(c1)OC(C)(C)C=C2
19,4.79,COc1cc2c(cc1OCC(F)(F)F)C=CC(C)(C)O2
20,4.89,CCOc1cc2c(cc1Cl)C=CC(C)(C)O2
21,4.49,COc1cc2c(cc1OCC(F)(F)F)OC(C)(C)C=C2
22,4.06,CC1(C)C=Cc2cccc(Cl)c2O1
23,7.67,CC1(C)C=Cc2c3c(c4c(c2O1)CCC(C)(C)O4)OC(C)(C)CC3
24,6.97,CCc1cc2c(c3c1OC(C)(C)CC3)OC(C)(C)C=C2
